Experimental findings from publication PMC3769975 (ChemMedChem, 2012) are described below.

SMILES strings stand for the structures. Values after ≈ are worked out from the molar mass of the structure shown. Like-named read-outs stand apart in the source and are kept apart here. Some results are limits rather than exact numbers.

Series [1] relates to WSN-Ren luciferase virus (influenza A/WSN/33) in MDCK-HA cells. The series can be described thus: microbe, parasite or virus in culture. The format is cell-based, influenza A/WSN/33 (H1N1).
For series [2], the system named is WSN-Ren luciferase virus in MDCK-HA cells. It counts as cell-based, influenza A/WSN/33 (H1N1).
Series [3] has as its system wild type influenza A/WSN/33 virus in A549 cells. Put plainly: qRT-PCR of viral NP mRNA, A549 cells infected with wild type WSN virus. The format is cell-based, influenza A/WSN/33 (H1N1). Conditions: 10 μM, 1 μM and 0.1 μM. (In general: Quantitative PCR measures a nucleic acid by following its amplification.)
The subject of series [4] is panel of 13 kinases. The series can be described thus: Kinase panel inhibition. The format is biochemical. Conditions: concentrations up to 5 μM.
Series [5] addresses recombinant neuraminidase N1 (A/California/04/09) (Influenza A virus (A/California/04/2009(H1N1)), UniProt C3W5S3). The series can be described thus: Fluorescent neuraminidase assay. It counts as biochemical, influenza A/California/04/09. Conditions: serial dilutions from 100 μM to 6.4 nM.
A short description of series [6]: 1D proton NMR solubility experiment. The format is physicochemical. Conditions: PBS with 2% DMSO, aqueous buffer, kinetic from dmso stock.
The test system of series [7] is MDCK-HA cell line.

For the compound `Cc1cc2cc(CNCCO)c(=O)[nH]c2cc1C` [Compound 6, 3-((2-hydroxyethylamino)methyl)-6,7-dimethylquinolin-2(1H)-one], in series [1], the “anti-influenza activity (in words, SAR discussion)” value (“anti-influenza activity” for short) was “did not elicit any anti-influenza activity”. In addition, the EC50 (in general, the concentration giving half of the maximal effect) in series [1] (Influenza A virus, WSN) is > 100000 nM.
Compound `CCC(C)(C)n1nnnc1C(C(C)C)N(CCO)Cc1cc2cc(C)c(C)cc2[nH]c1=O` (stereo not shown) [Compound 7, 3-(((2-hydroxyethyl)(2-methyl-1-(1-tert-pentyl-1H-tetrazole-5-yl)propyl)amino)methyl)-6,7-dimethylquinolin-2(1H)-one] yielded an EC50 in series [1] (Influenza A virus, WSN) of 45.6 nM. Besides, the “viral NP mRNA expression compared to DMSO treated controls” value in series [2] is recorded as “reduction of the NP mRNA expression”. Also, the “viral replication (NP mRNA) after 26 hour incubation” value in series [2] (10 μM) is given as “minimal viral replication”. Besides, the “viral NP mRNA expression levels” value in series [3] is recorded as “reduced NP mRNA expression levels in a dose dependent matter”. The “inhibition of selected kinases” value in series [4] is on record as “did not significantly inhibit”. Further, the activity against neuraminidase entry in series [5] was “ineffective”. For the same compound, the solubility (as a rule, the dissolved amount per volume that the medium holds) in series [6] was 10 to 15 µM (≈ 4.41 to 6.61 µg/mL). The cytotoxicity profile result in series [7] is on record as “good cytotoxicity profile”.
For `CCC(C)(C)n1nnnc1C(NCc1cc2cc(C)c(C)cc2[nH]c1=O)C(C)C` (stereo not shown) [Compound 23, 6,7-dimethyl-3-(((2-methyl-1-(1-(tert-pentyl)-1H-tetrazole-5-yl)propyl)amino)methyl)quinolin-2(1H)-one], in series [1], the “anti-influenza activity” value is “inactivation”. Besides, the EC50 in series [1] (Influenza A virus, WSN) is > 100000 nM.
On to `Cc1cc2cc(CNC(=O)c3ccccc3)c(=O)[nH]c2cc1C` [Compound 24, N-((6,7-dimethyl-2-oxo-1,2-dihydroquinolin-3-yl)methyl)benzamide], for which the “anti-influenza activity” value in series [1] is “not sufficient”. Also, in series [1] (Influenza A virus, WSN), the EC50 is > 100000 nM.
On to `CCC(C)(C)n1nnnc1C(C(C)C)N(Cc1cc2cc(C)c(C)cc2[nH]c1=O)CC1CCCO1` (stereo not shown) [Compound 25, 6,7-dimethyl-3-(((2-methyl-1-(1-(tert-pentyl)-1H-tetrazol-5-yl)propyl)((tetrahydrofuran-2-yl)methyl)amino)methyl)quinolin-2(1H)-one], for which, in series [1], the EC50 was 2950 nM and the “anti-influenza activity” value is “low micromolar range”. The EC50 in series [1] (Influenza A virus, WSN) was ~3000 nM.
For the compound `CCOC(=O)C1=C[C@@H](OC(CC)CC)[C@H](NC(C)=O)[C@@H](N)C1` [oseltamivir phosphate, reference compound], the “potency relative to best compounds of Table 1” value in series [1] is on record as “roughly 100 fold”. Besides, the EC50 in series [1] (Influenza A virus, WSN) was ~0.5 nM.
